# Assay results from patent publication US20240358692A1, “TREATMENT OF SCLERODERMA” (Aisa Pharma, Inc., priority 2023, published 2024).
# Tests used:
# Type in all cases: in vivo, human
# participants with SSc-RP [1] = assay: SHAQ - Visual Analog Scale - Breathing Problems; details: pooled cilnidipine 10 mg and 20 mg arms (combination: + tadalafil 5 mg)
# Description: (§1) The standard, validated, patient reported outcome measures tool for SSc patients, the Scleroderma Health Assessment Questionnaire (SHAQ), will be used to assess the participant qualify of life. Details are attached in the Appendix. The participant quality of life will be scored, and a disability index calculated for each questionnaire completed by the patient at Screening and each in-clinic visit. The absolute change in participant quality of life from baseline to the end of each dosing period will be calculated similar to frequency data as before.
# (§2) The standard, validated, patient reported outcome measures tool for SSc patients, the SHAQ, was collected at the time points specified in the study schedules (FIG. 2 and FIGS. 4A and 4B) to assess the participant's quality of life. The SHAQ included a Raynaud's VAS that will also be reported separately.
# participants with SSc-RP [2] = assay: SHAQ - Visual Analog Scale - Finger Ulcers; details: for SHAQ Visual Analogue Scale - Finger Ulcers, Change from Baseline, Mean (SD) / SHAQ Visual Analogue Scale - Finger Ulcers, Change from Baseline, Median / SHAQ Visual Analogue Scale - Finger Ulcers, In-Clinic Visit (Day 12), Mean (SD) / SHAQ Visual Analogue Scale - Finger Ulcers, In-Clinic Visit (Day 12), Median / SHAQ Visual Analogue Scale - Finger Ulcers, Percent Change from Baseline, Mean (SD) / SHAQ Visual Analogue Scale - Finger Ulcers, Percent Change from Baseline, Median: Day 12; for % improvement in VAS Digital Ulcers: SHAQ, mITT Part A
# Description: as §1, §2
# participants with SSc-RP [3] = assay: Summary of data: dose response / overall response (Table S); details: 20 mg dose group
# [4] = Any Cilnidipine (N = 17), PP Population, Part A
# [5] = Cilnidipine 10 mg (N = 4), PP Population, Part A
# [6] = Cilnidipine 20 mg (N = 4), PP Population, Part A
# [7] = Pooled Cilnidipine 10 mg and Cilnidipine 10 mg + Tadalafil 5 mg, PP, Part A
# [8] = Pooled Cilnidipine 20 mg and Cilnidipine 20 mg + Tadalafil 5 mg, PP, Part A
# [9] = Pooled Cilnidipine (N = 8), PP Population, Part A
# [10] = cilnidipine 10 mg (combination: + tadalafil 5 mg)
# [11] = cilnidipine 20 mg (combination: + tadalafil 5 mg)
smiles,measurement,setting,value
COCCOC(=O)C1=C(C)NC(C)=C(C(=O)OC/C=C/c2ccccc2)C1c1cccc([N+](=O)[O-])c1 (centres unmarked) [Cilnidipine],VAS Breathing Problems Percent Change from Baseline Mean,participants with SSc-RP [1],−8.17%
same,VAS Breathing Problems Percent Change from Baseline Median,participants with SSc-RP [1],−41.33%
same,VAS Breathing Problems Percent Change from Baseline Min,participants with SSc-RP [1],−100.0%
same,VAS Breathing Problems Percent Change from Baseline Q1,participants with SSc-RP [1],−83.33%
same,VAS Breathing Problems Percent Change from Baseline Q3,participants with SSc-RP [1],67.00%
same,"SHAQ Visual Analogue Scale - Finger Ulcers, Change from Baseline, Mean (SD)",participants with SSc-RP [2]; [4],−0.540 (1.0568)
same,"SHAQ Visual Analogue Scale - Finger Ulcers, Change from Baseline, Median",participants with SSc-RP [2]; [4],−0.100
same,"SHAQ Visual Analogue Scale - Finger Ulcers, In-Clinic Visit (Day 12), Mean (SD)",participants with SSc-RP [2]; [4],0.731 (1.4351)
same,"SHAQ Visual Analogue Scale - Finger Ulcers, In-Clinic Visit (Day 12), Median",participants with SSc-RP [2]; [4],0.000
same,"SHAQ Visual Analogue Scale - Finger Ulcers, Percent Change from Baseline, Mean (SD)",participants with SSc-RP [2]; [4],−33.91 (69.617) %
same,"SHAQ Visual Analogue Scale - Finger Ulcers, Percent Change from Baseline, Median",participants with SSc-RP [2]; [4],−36.11%
same,"SHAQ Visual Analogue Scale - Finger Ulcers, Change from Baseline, Median",participants with SSc-RP [2]; [5],−0.350
same,"SHAQ Visual Analogue Scale - Finger Ulcers, In-Clinic Visit (Day 12), Median",participants with SSc-RP [2]; [5],0.000
same,"SHAQ Visual Analogue Scale - Finger Ulcers, In-Clinic Visit (Day 12), Median","participants with SSc-RP [2]; Cilnidipine 10 mg, PP Population Part A, sensitivity analysis",0.000
same,"SHAQ Visual Analogue Scale - Finger Ulcers, Change from Baseline, Median",participants with SSc-RP [2]; [6],0.000
same,"SHAQ Visual Analogue Scale - Finger Ulcers, In-Clinic Visit (Day 12), Median",participants with SSc-RP [2]; [6],0.350
same,% improvement in VAS Digital Ulcers,participants with SSc-RP [2]; Cilnidipine 20 mg (n = 3),35%
same,"SHAQ Burden of Finger Ulcers, mean % change","participants with SSc-RP [2]; Cilnidipine 20 mg (n = 3), minus = improvement, Table A*",−17%
same,"SHAQ Visual Analogue Scale - Finger Ulcers, In-Clinic Visit (Day 12), Mean","participants with SSc-RP [2]; Pooled Cilnidipine 10 mg and Cilnidipine 10 mg + Tadalafil 5 mg (N = 9), Modified ITT Population - Part A",0.389
same,"SHAQ VAS Finger Ulcers, Change from Baseline, Max",participants with SSc-RP [2]; [7],0.00
same,"SHAQ VAS Finger Ulcers, Change from Baseline, Min",participants with SSc-RP [2]; [7],"−1.00,"
same,"SHAQ VAS Finger Ulcers, Change from Baseline, Q1",participants with SSc-RP [2]; [7],"−0.500,"
same,"SHAQ VAS Finger Ulcers, Change from Baseline, Q3",participants with SSc-RP [2]; [7],0.000
same,"SHAQ VAS Finger Ulcers, Day 12, Max",participants with SSc-RP [2]; [7],1.50
same,"SHAQ VAS Finger Ulcers, Day 12, Min",participants with SSc-RP [2]; [7],"0.00,"
same,"SHAQ VAS Finger Ulcers, Day 12, Q1",participants with SSc-RP [2]; [7],"0.000,"
same,"SHAQ VAS Finger Ulcers, Day 12, Q3",participants with SSc-RP [2]; [7],0.700
same,"SHAQ VAS Finger Ulcers, Percent Change from Baseline, Max",participants with SSc-RP [2]; [7],0.0
same,"SHAQ VAS Finger Ulcers, Percent Change from Baseline, Min",participants with SSc-RP [2]; [7],"−100.0,"
same,"SHAQ VAS Finger Ulcers, Percent Change from Baseline, Q1",participants with SSc-RP [2]; [7],"−100.00,"
same,"SHAQ VAS Finger Ulcers, Percent Change from Baseline, Q3",participants with SSc-RP [2]; [7],−12.50
same,"SHAQ VAS Finger Ulcers, Change from Baseline, Max",participants with SSc-RP [2]; [8],0.40
same,"SHAQ VAS Finger Ulcers, Change from Baseline, Min",participants with SSc-RP [2]; [8],"−3.20,"
same,"SHAQ VAS Finger Ulcers, Change from Baseline, Q1",participants with SSc-RP [2]; [8],"−2.800,"
same,"SHAQ VAS Finger Ulcers, Change from Baseline, Q3",participants with SSc-RP [2]; [8],0.000
same,"SHAQ VAS Finger Ulcers, Day 12, Max",participants with SSc-RP [2]; [8],5.60
same,"SHAQ VAS Finger Ulcers, Day 12, Median",participants with SSc-RP [2]; [8],0.000
same,"SHAQ VAS Finger Ulcers, Day 12, Min",participants with SSc-RP [2]; [8],"0.00,"
same,"SHAQ VAS Finger Ulcers, Day 12, Q1",participants with SSc-RP [2]; [8],"0.000,"
same,"SHAQ VAS Finger Ulcers, Day 12, Q3",participants with SSc-RP [2]; [8],1.900
same,"SHAQ VAS Finger Ulcers, Percent Change from Baseline, Max",participants with SSc-RP [2]; [8],133.3
same,"SHAQ VAS Finger Ulcers, Percent Change from Baseline, Min",participants with SSc-RP [2]; [8],"−100.0,"
same,"SHAQ VAS Finger Ulcers, Percent Change from Baseline, Q1",participants with SSc-RP [2]; [8],"−81.37,"
same,"SHAQ VAS Finger Ulcers, Percent Change from Baseline, Q3",participants with SSc-RP [2]; [8],50.00
same,"SHAQ Visual Analogue Scale - Finger Ulcers, Change from Baseline, Mean (SD)",participants with SSc-RP [2]; [9],−0.643 (1.2246)
same,"SHAQ Visual Analogue Scale - Finger Ulcers, Change from Baseline, Median",participants with SSc-RP [2]; [9],0.000
same,"SHAQ Visual Analogue Scale - Finger Ulcers, In-Clinic Visit (Day 12), Mean (SD)",participants with SSc-RP [2]; [9],0.463 (0.7170)
same,"SHAQ Visual Analogue Scale - Finger Ulcers, In-Clinic Visit (Day 12), Median",participants with SSc-RP [2]; [9],0.000
same,"SHAQ Visual Analogue Scale - Finger Ulcers, Percent Change from Baseline, Mean (SD)",participants with SSc-RP [2]; [9],−17.08 (103.378) %
same,"SHAQ Visual Analogue Scale - Finger Ulcers, Percent Change from Baseline, Median",participants with SSc-RP [2]; [9],−50.82%
same,% improvement in VAS Digital Ulcers,participants with SSc-RP [2]; Pooled Cilnidipine (n = 7),19%
same,"SHAQ VAS Finger Ulcers, Change from Baseline, Max","participants with SSc-RP [2]; Pooled Cilnidipine, PP, Part A",0.40
same,"SHAQ VAS Finger Ulcers, Change from Baseline, Min","participants with SSc-RP [2]; Pooled Cilnidipine, PP, Part A","−3.20,"
same,"SHAQ VAS Finger Ulcers, Change from Baseline, Q1","participants with SSc-RP [2]; Pooled Cilnidipine, PP, Part A","−1.000,"
same,"SHAQ VAS Finger Ulcers, Change from Baseline, Q3","participants with SSc-RP [2]; Pooled Cilnidipine, PP, Part A",0.000
same,"SHAQ VAS Finger Ulcers, Day 12, Max","participants with SSc-RP [2]; Pooled Cilnidipine, PP, Part A",1.90
same,"SHAQ VAS Finger Ulcers, Day 12, Min","participants with SSc-RP [2]; Pooled Cilnidipine, PP, Part A","0.00,"
same,"SHAQ VAS Finger Ulcers, Day 12, Q1","participants with SSc-RP [2]; Pooled Cilnidipine, PP, Part A","0.000,"
same,"SHAQ VAS Finger Ulcers, Day 12, Q3","participants with SSc-RP [2]; Pooled Cilnidipine, PP, Part A",0.900
same,"SHAQ VAS Finger Ulcers, Percent Change from Baseline, Max","participants with SSc-RP [2]; Pooled Cilnidipine, PP, Part A",133.3
same,"SHAQ VAS Finger Ulcers, Percent Change from Baseline, Min","participants with SSc-RP [2]; Pooled Cilnidipine, PP, Part A","−100.0,"
same,"SHAQ VAS Finger Ulcers, Percent Change from Baseline, Q1","participants with SSc-RP [2]; Pooled Cilnidipine, PP, Part A","−81.37,"
same,"SHAQ VAS Finger Ulcers, Percent Change from Baseline, Q3","participants with SSc-RP [2]; Pooled Cilnidipine, PP, Part A",47.22
same,VAS Finger Ulcers Change from Baseline Max,participants with SSc-RP [2]; [10],0.00
same,VAS Finger Ulcers Change from Baseline Median,participants with SSc-RP [2]; [10],−0.350
same,VAS Finger Ulcers Change from Baseline Min,participants with SSc-RP [2]; [10],−1.00
same,VAS Finger Ulcers Change from Baseline Q1,participants with SSc-RP [2]; [10],−0.850
same,VAS Finger Ulcers Change from Baseline Q3,participants with SSc-RP [2]; [10],0.000
same,VAS Finger Ulcers Day 12 Max,participants with SSc-RP [2]; [10],1.10
same,VAS Finger Ulcers Day 12 Median,participants with SSc-RP [2]; [10],0.000
same,VAS Finger Ulcers Day 12 Min,participants with SSc-RP [2]; [10],0.00
same,VAS Finger Ulcers Day 12 Q1,participants with SSc-RP [2]; [10],0.000
same,VAS Finger Ulcers Day 12 Q3,participants with SSc-RP [2]; [10],0.550
same,VAS Finger Ulcers Percent Change from Baseline Mean,participants with SSc-RP [2]; [10],−69.44%
same,VAS Finger Ulcers Percent Change from Baseline Median,participants with SSc-RP [2]; [10],−69.44%
same,VAS Finger Ulcers Percent Change from Baseline Min,participants with SSc-RP [2]; [10],−100.0%
same,VAS Finger Ulcers Percent Change from Baseline Q1,participants with SSc-RP [2]; [10],−100.00%
same,VAS Finger Ulcers Change from Baseline Max,participants with SSc-RP [2]; [11],0.40
same,VAS Finger Ulcers Change from Baseline Mean,participants with SSc-RP [2]; [11],−0.933
same,VAS Finger Ulcers Change from Baseline Median,participants with SSc-RP [2]; [11],0.000
same,VAS Finger Ulcers Change from Baseline Min,participants with SSc-RP [2]; [11],−3.20
same,VAS Finger Ulcers Change from Baseline Q1,participants with SSc-RP [2]; [11],−3.200
same,VAS Finger Ulcers Change from Baseline Q3,participants with SSc-RP [2]; [11],0.400
same,VAS Finger Ulcers Day 12 Max,participants with SSc-RP [2]; [11],1.90
same,VAS Finger Ulcers Day 12 Median,participants with SSc-RP [2]; [11],0.700
same,VAS Finger Ulcers Day 12 Min,participants with SSc-RP [2]; [11],0.00
same,VAS Finger Ulcers Day 12 Q1,participants with SSc-RP [2]; [11],0.000
same,VAS Finger Ulcers Day 12 Q3,participants with SSc-RP [2]; [11],1.900
same,VAS Finger Ulcers Percent Change from Baseline Max,participants with SSc-RP [2]; [11],133.3%
same,VAS Finger Ulcers Percent Change from Baseline Mean,participants with SSc-RP [2]; [11],35.29%
same,VAS Finger Ulcers Percent Change from Baseline Median,participants with SSc-RP [2]; [11],35.29%
same,VAS Finger Ulcers Percent Change from Baseline Min,participants with SSc-RP [2]; [11],−62.7%
same,VAS Finger Ulcers Percent Change from Baseline Q1,participants with SSc-RP [2]; [11],−62.75%
same,VAS Finger Ulcers Percent Change from Baseline Q3,participants with SSc-RP [2]; [11],133.33%
same,Efficacy seen: overall response,participants with SSc-RP [3],shows best overall
